Patent US20240109918A1, “HETEROCYCLIC COMPOUNDS AND USES THEREOF” (Kumquat Biosciences Inc., priority 2022, published 2024)

How the values were obtained:
KRASG12D = target: T1, KRASG12D (Homo sapiens, UniProt P01116, G12D); assay: Bio-Biochem-PPI-HTRF Ras-SOS1 interaction assay (KRAS G12D); format: biochemical; details: 5 nM
T1 construct: made in house; host or cells: E. coli BL21 (DE3)
Experimental: (§1) The assay buffer can contain −5 mM HEPES pH 7.4, ˜150 mM NaCl, ˜ 1 mM DTT, 0.05% BSA and 0.0025% (v/v) Igepal. A Ras working solution is prepared in an assay buffer containing typically a suitable amount of the protein construct (e.g., GST-tagged K-Ras mutant) and the FRET donor (e.g., antiGST-Eu(K) from Cisbio, France). A SOS1 working solution is prepared in an assay buffer containing suitable amount of the protein construct (e.g., His-hSOS1) and the FRET acceptor (e.g., anti-6His-XL665 from Cisbio, France). A suitable amount of the protein construct will depend on the range of activity or range of IC50 values being detected or under investigation. For detecting IC50 within a range of 500 nM, the protein constructs of the same range of molarity can be utilized. […] A fixed volume of DMSO with or without test compound is transferred into a 384-well plate. Ras working solution is added to all wells of the test plate. SOS1 working solution is added to all wells except for those that are subsequently filled the inhibitor control solution. Upon incubation for about 10 minutes or longer, the fluorescence is measured with a M1000Pro plate reader (Tecan) using HTRF detection (excitation 337 nm, emission 1:620 nm, emission 2: 665 nm). Compounds are tested in duplicates at different concentrations (for example, 10 μM, 2.5 μM, 0.63 μM, 0.16 μM, 0.04 μM, 0.01 μM test compound). The ratiometric data (i.e., emission 2 divided by emission 1) is used to calculate IC50 values against Ras using GraphPad Prism (GraphPad software). Following this general procedure, samples were tested with or without a subject compound disclosed herein including compounds exemplified in Table 1 to assess their abilities to inhibit a mutant K-Ras relative to another mutant K-Ras or wildtype K-Ras. Signaling output measured in terms of IC50 values can be obtained, a ratio of IC50 against one mutant relative to another mutant can be calculated. For instance, a selective reduction of K-Ras G12D signaling output can be evidenced by a ratio greater than one. In particular, a selective reduction of K-Ras G12D signaling relative to K-Ras WT signaling is evidenced as the ratio of IC50 (against K-Ras WT) to IC50 (against K-Ras G12D) is greater than 1.

KRASwt = target: T2, KRASwt (Homo sapiens, UniProt P01116); assay: Bio-Biochem-PPI-HTRF Ras-SOS1 interaction assay (KRAS wt); format: biochemical; details: 5 nM
T2 construct: made in house; host or cells: E. coli BL21 (DE3)
Experimental: as §1

T2 sequence (P01116 1-188 isoform P01116-2): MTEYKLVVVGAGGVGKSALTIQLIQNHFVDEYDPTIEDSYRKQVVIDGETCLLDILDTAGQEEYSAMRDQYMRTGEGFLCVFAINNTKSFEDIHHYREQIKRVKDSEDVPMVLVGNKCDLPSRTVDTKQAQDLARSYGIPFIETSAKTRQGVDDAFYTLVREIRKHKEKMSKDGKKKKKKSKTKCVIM
T1 sequence (P01116 1-188 isoform P01116-2 G12D): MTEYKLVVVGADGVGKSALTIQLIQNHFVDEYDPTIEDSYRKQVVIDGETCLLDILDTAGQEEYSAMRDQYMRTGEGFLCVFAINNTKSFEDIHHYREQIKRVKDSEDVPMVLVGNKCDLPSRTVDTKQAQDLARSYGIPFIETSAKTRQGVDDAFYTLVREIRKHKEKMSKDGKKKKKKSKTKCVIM

Row | IC50 (KRASG12D) | IC50 (KRASwt) | SMILES
1 | < 5 µM | < 5 µM | N#Cc1c(N)sc2c(F)ccc(-c3c(Cl)cc4c(N5CCCCC6(CN(C(=O)C7CC7C(F)(F)F)C6)C5)nc(OC[C@@]56CCCN5C[C@H](F)C6)nc4c3F)c12 (stereo partly drawn) [compound 311, 2-amino-4-(6-chloro-8-fluoro-2-(((2R,7aS)-2-fluorotetrahydro-1H-pyrrolizin-7a(5H)-yl)methoxy)-4-(2-(2-(trifluoromethyl)cyclopropane-1-carbonyl)-2,6-diazaspiro[3.6]decan-6-yl)quinazolin-7-yl)-7-fluorobenzo[b]thiophene-3-carbonitrile]
2 | < 5 µM | < 5 µM | N#Cc1c(N)sc2c(F)ccc(-c3c(Cl)cc4c(N5CCCCC6(CN(C(=O)C7COC7)C6)C5)nc(OC[C@@]56CCCN5C[C@H](F)C6)nc4c3F)c12 [compound 293, 2-amino-4-(6-chloro-8-fluoro-2-(((2R,7aS)-2-fluorotetrahydro-1H-pyrrolizin-7a(5H)-yl)methoxy)-4-(2-(oxetane-3-carbonyl)-2,6-diazaspiro[3.6]decan-6-yl)quinazolin-7-yl)-7-fluorobenzo[b]thiophene-3-carbonitrile]
3 | < 5 µM | < 5 µM | N#Cc1c(N)sc2c(F)ccc(-c3c(Cl)cc4c(N5CCCCC6(CN(C(=O)CC7CCO7)C6)C5)nc(OC[C@@]56CCCN5C[C@H](F)C6)nc4c3F)c12 (stereo partly drawn) [compound 203, 2-amino-4-(6-chloro-8-fluoro-2-(((2R,7aS)-2-fluorotetrahydro-1H-pyrrolizin-7a(5H)-yl)methoxy)-4-(2-(2-(oxetan-2-yl)acetyl)-2,6-diazaspiro[3.6]decan-6-yl)quinazolin-7-yl)-7-fluorobenzo[b]thiophene-3-carbonitrile]
4 | < 5 µM | < 5 µM | CC1CCCC2(CN(C(=O)C3CC3(F)F)C2)CN1c1nc(OC[C@@]23CCCN2C[C@H](F)C3)nc2c(F)c(-c3ccc(F)c4sc(N)c(C#N)c34)c(Cl)cc12 (stereo partly drawn) [compound 288, 2-amino-4-(6-chloro-4-(2-(2,2-difluorocyclopropane-1-carbonyl)-7-methyl-2,6-diazaspiro[3.6]decan-6-yl)-8-fluoro-2-(((2R,7aS)-2-fluorotetrahydro-1H-pyrrolizin-7a(5H)-yl)methoxy)quinazolin-7-yl)-7-fluorobenzo[b]thiophene-3-carbonitrile]
5 | < 5 µM | < 5 µM | N#Cc1c(N)sc2c(F)ccc(-c3c(Cl)cc4c(N5CC(F)(F)CCC6(CN(C(=O)[C@@H]7CC7(F)F)C6)C5)nc(OC[C@@]56CCCN5C[C@H](F)C6)nc4c3F)c12 [compound 232, 2-amino-4-(6-chloro-4-(2-((S)-2,2-difluorocyclopropane-1-carbonyl)-8,8-difluoro-2,6-diazaspiro[3.6]decan-6-yl)-8-fluoro-2-(((2R,7aS)-2-fluorotetrahydro-1H-pyrrolizin-7a(5H)-yl)methoxy)quinazolin-7-yl)-7-fluorobenzo[b]thiophene-3-carbonitrile]
6 | < 5 µM | < 5 µM | N#Cc1c(N)sc2c(F)ccc(-c3c(Cl)cc4c(N5CCCCC6(CN(C(=O)C7CCOCC7)C6)C5)nc(OC[C@@]56CCCN5C[C@H](F)C6)nc4c3F)c12 [compound 300, 2-amino-4-(6-chloro-8-fluoro-2-(((2R,7aS)-2-fluorotetrahydro-1H-pyrrolizin-7a(5H)-yl)methoxy)-4-(2-(tetrahydro-2H-pyran-4-carbonyl)-2,6-diazaspiro[3.6]decan-6-yl)quinazolin-7-yl)-7-fluorobenzo[b]thiophene-3-carbonitrile]
7 | < 5 µM | < 5 µM | N#Cc1c(N)sc2c(F)ccc(-c3c(Cl)cc4c(N5CCOC6(CN(C(=O)[C@H]7CC7(F)F)C6)C5)nc(OC[C@@]56CCCN5C[C@H](F)C6)nc4c3F)c12 (single isomer, unassigned) [compound 176]
8 | < 5 µM | < 5 µM | CN(C)C/C=C/C(=O)N1CC2(C1)CN(c1nc(OC[C@@]34CCCN3C[C@H](F)C4)nc3c(F)c(-c4ccc(F)c5sc(N)nc45)c(Cl)cc13)CCO2 [compound 178, (E)-1-(8-(7-(2-amino-7-fluorobenzo[d]thiazol-4-yl)-6-chloro-8-fluoro-2-(((2R,7aS)-2-fluorotetrahydro-1H-pyrrolizin-7a(5H)-yl)methoxy)quinazolin-4-yl)-5-oxa-2,8-diazaspiro[3.5]nonan-2-yl)-4-(dimethylamino)but-2-en-1-one]
9 | < 5 µM | < 5 µM | N#Cc1c(N)sc2c(F)ccc(-c3c(Cl)cc4c(N5CCCCC6(CN(C(=O)CCC(F)F)C6)C5)nc(OC[C@@]56CCCN5C[C@H](F)C6)nc4c3F)c12 [compound 337, 2-amino-4-(6-chloro-4-(2-(4,4-difluorobutanoyl)-2,6-diazaspiro[3.6]decan-6-yl)-8-fluoro-2-(((2R,7aS)-2-fluorotetrahydro-1H-pyrrolizin-7a(5H)-yl)methoxy)quinazolin-7-yl)-7-fluorobenzo[b]thiophene-3-carbonitrile]
10 | < 5 µM | < 5 µM | N#Cc1c(N)sc2c(F)ccc(-c3c(Cl)cc4c(N5CCCCC6(CN(C(=O)C78CC(C#N)(C7)C8)C6)C5)nc(OC[C@@]56CCCN5C[C@H](F)C6)nc4c3F)c12 [compound 279, 2-amino-4-(6-chloro-4-(2-(3-cyanobicyclo[1.1.1]pentane-1-carbonyl)-2,6-diazaspiro[3.6]decan-6-yl)-8-fluoro-2-(((2R,7aS)-2-fluorotetrahydro-1H-pyrrolizin-7a(5H)-yl)methoxy)quinazolin-7-yl)-7-fluorobenzo[b]thiophene-3-carbonitrile]
11 | < 5 µM | < 5 µM | Cc1cc(C(=O)N2CC3(CCCCN(c4nc(OC[C@@]56CCCN5C[C@H](F)C6)nc5c(F)c(-c6ccc(F)c7sc(N)c(C#N)c67)c(Cl)cc45)C3)C2)nn1C(F)F [compound 209, 2-amino-4-(6-chloro-4-(2-(1-(difluoromethyl)-5-methyl-1H-pyrazole-3-carbonyl)-2,6-diazaspiro[3.6]decan-6-yl)-8-fluoro-2-(((2R,7aS)-2-fluorotetrahydro-1H-pyrrolizin-7a(5H)-yl)methoxy)quinazolin-7-yl)-7-fluorobenzo[b]thiophene-3-carbonitrile]
12 | < 5 µM | < 5 µM | N#Cc1c(N)sc2c(F)ccc(-c3c(Cl)cc4c(N5CCCCC6(CN(C(=O)[C@H]7[C@@H]8COC[C@@H]87)C6)C5)nc(OCC56CCCN5C[C@H](F)C6)nc4c3F)c12 (stereo partly drawn) [compound 192, 4-(4-(2-((1R,5S,6r)-3-oxabicyclo[3.1.0]hexane-6-carbonyl)-2,6-diazaspiro[3.6]decan-6-yl)-6-chloro-8-fluoro-2-(((2R,7aS)-2-fluorotetrahydro-1H-pyrrolizin-7a(5H)-yl)methoxy)quinazolin-7-yl)-2-amino-7-fluorobenzo [b]thiophene-3-carbonitrile]
13 | < 5 µM | < 5 µM | CN(C)C/C=C/C(=O)N1CC2(CCCCN(c3nc(OC[C@@]45CCCN4C[C@H](F)C5)nc4c(F)c(-c5ccc(F)c6sc(N)c(C#N)c56)c(Cl)cc34)C2)C1 [compound 188, 2-amino-4-(6-chloro-4-(2-((E)-4-(dimethylamino)but-2-enoyl)-2,6-diazaspiro[3.6]decan-6-yl)-8-fluoro-2-(((2R,7aS)-2-fluorotetrahydro-1H-pyrrolizin-7a(5H)-yl)methoxy)quinazolin-7-yl)-7-fluorobenzo[b]thiophene-3-carbonitrile]
